According to patent publication US12582657B2, “Combination therapy including a KRAS G12C inhibitor and one or more additional pharmaceutically active agents for the treatment of cancers” (Amgen Inc., priority 2018, dated 2026):
Like-named read-outs stand apart in the source and are kept apart here.

Legend:
[1] = system: ERK1/2 phosphorylation in NCI-H1373 cells; experiment: Basal ERK1/2 phosphorylation assay (MSD); type: cell-based; details: Homo sapiens; NCI-H1373, lung, KRAS p.G12C homozygous; 2-hour treatment
Procedure: (§1) For cellular assays, 2.5E+04 cells were seeded per well in 96-well plates and incubated at 37° C., 5% CO2, o/n. The following day, 3-fold serially-diluted compound or DMSO was added to the cells, and the plates were incubated at 37° C., 5% CO2 for 2 hours. […] Signal intensity corresponded with phospho-ERK1/2 levels and was normalized DMSO control.

[2] = system: ERK1/2 phosphorylation in A-427 cells; experiment: Basal ERK1/2 phosphorylation assay (MSD); type: cell-based; details: Homo sapiens; A-427, lung, KRAS p.G12D heterozygous; 2-hour treatment
Procedure: as §1

[3] = system: ERK1/2 phosphorylation in AsPC-1 cells; experiment: Basal ERK1/2 phosphorylation assay (MSD); type: cell-based; details: Homo sapiens, ASPC1; AsPC-1, pancreas, KRAS p.G12D homozygous; 2-hour treatment
Procedure: as §1

[4] = system: ERK1/2 phosphorylation in Calu-1 cells; experiment: Basal ERK1/2 phosphorylation assay (MSD); type: cell-based; details: Homo sapiens; Calu-1, lung, KRAS p.G12C heterozygous; 2-hour treatment
Procedure: as §1

[5] = system: ERK1/2 phosphorylation in NCI-H1355 cells; experiment: Basal ERK1/2 phosphorylation assay (MSD); type: cell-based; details: Homo sapiens; NCI-H1355, lung, KRAS p.G13C heterozygous; 2-hour treatment
Procedure: as §1

[6] = system: ERK1/2 phosphorylation in NCI-H2030 cells; experiment: Basal ERK1/2 phosphorylation assay (MSD); type: cell-based; details: Homo sapiens; NCI-H2030, lung, KRAS p.G12C homozygous; 2-hour treatment
Procedure: as §1

[7] = system: ERK1/2 phosphorylation in SW480 cells; experiment: Basal ERK1/2 phosphorylation assay (MSD); type: cell-based; details: Homo sapiens; SW480, colon, KRAS p.G12V homozygous; 2-hour treatment
Procedure: as §1

[8] = system: ERK1/2 phosphorylation in UM-UC-3 cells; experiment: Basal ERK1/2 phosphorylation assay (MSD); type: cell-based; details: Homo sapiens, UMUC3; UM-UC-3, bladder, KRAS p.G12C homozygous; 2-hour treatment
Procedure: as §1

[9] = system: ERK1/2 phosphorylation in SW1573 cells; experiment: Basal ERK1/2 phosphorylation assay (MSD); type: cell-based; details: Homo sapiens; SW1573, lung, KRAS p.G12C homozygous; 2-hour treatment
Procedure: as §1

[10] = system: ERK1/2 phosphorylation in HCC-827 cells; experiment: Basal ERK1/2 phosphorylation assay (MSD); type: cell-based; details: Homo sapiens, HCC827; HCC-827, lung, KRAS WT EGFR p.E746_A750del; 2-hour treatment
Procedure: as §1

[11] = system: ERK1/2 phosphorylation in COLO-205 cells; experiment: Basal ERK1/2 phosphorylation assay (MSD); type: cell-based; details: Homo sapiens; COLO-205, colon, KRAS WT BRAF p.V600E; 2-hour treatment
Procedure: as §1

[12] = system: ERK1/2 phosphorylation in NCI-H23 cells; experiment: Basal ERK1/2 phosphorylation assay (MSD); type: cell-based; details: Homo sapiens; NCI-H23, lung, KRAS p.G12C heterozygous; 2-hour treatment
Procedure: as §1

[13] = system: ERK1/2 phosphorylation in NCI-H2122 cells; experiment: Basal ERK1/2 phosphorylation assay (MSD); type: cell-based; details: Homo sapiens; NCI-H2122, lung, KRAS p.G12C homozygous; 2-hour treatment
Procedure: as §1

[14] = system: ERK1/2 phosphorylation in SW837 cells; experiment: Basal ERK1/2 phosphorylation assay (MSD); type: cell-based; details: Homo sapiens; SW837, colon, KRAS p.G12C heterozygous; 2-hour treatment
Procedure: as §1

[15] = system: ERK1/2 phosphorylation in KM12 cells; experiment: Basal ERK1/2 phosphorylation assay (MSD); type: cell-based; details: Homo sapiens; KM12, colon, KRAS WT TPM3-NTRK fusion; 2-hour treatment; read-out: Basal p-ERK1/2 IC50
Procedure: as §1

[16] = system: ERK1/2 phosphorylation in NCI-H1792 cells; experiment: Basal ERK1/2 phosphorylation assay (MSD); type: cell-based; details: Homo sapiens; NCI-H1792, lung, KRAS p.G12C heterozygous; 2-hour treatment
Procedure: as §1

[17] = system: ERK1/2 phosphorylation in NCI-H1322 cells; experiment: Basal ERK1/2 phosphorylation assay (MSD); type: cell-based; details: Homo sapiens, 2 h, read-out: Basal p-ERK1/2 IC50
Procedure: as §1

[18] = system: ERK1/2 phosphorylation in SW1463 cells; experiment: Basal ERK1/2 phosphorylation assay (MSD); type: cell-based; details: Homo sapiens; SW1463, colon, KRAS p.G12C homozygous; 2-hour treatment
Procedure: as §1

[19] = system: ERK1/2 phosphorylation in LS 174T cells; experiment: Basal ERK1/2 phosphorylation assay (MSD); type: cell-based; details: Homo sapiens, LS174T, colon, KRAS p.G12D heterozygous, 2-hour treatment
Procedure: as §1

[20] = system: ERK1/2 phosphorylation in A549 cells; experiment: Basal ERK1/2 phosphorylation assay (MSD); type: cell-based; details: Homo sapiens; A549, lung, KRAS p.G12S homozygous; 2-hour treatment
Procedure: as §1

[21] = system: ERK1/2 phosphorylation in MIA PaCa-2 cells; experiment: Basal ERK1/2 phosphorylation assay (MSD); type: cell-based; details: Homo sapiens, 2-hour treatment
Procedure: as §1

[22] = system: ERK1/2 phosphorylation in NCI-H358 cells; experiment: Basal ERK1/2 phosphorylation assay (MSD); type: cell-based; details: Homo sapiens
Procedure: as §1

physchem = details: 5 mM glutathione
[23] = system: ERK1/2 phosphorylation in NCI-H358 tumors; experiment: Tumor pharmacodynamic assay (p-ERK, MSD immunoassay); details: Mus musculus, NCI-H358, po, 2 h, read-out: inhibition of p-ERK, reduction compared to control
[24] = system: ERK1/2 phosphorylation in MIA PaCa-2 T2 tumors; experiment: as above; type: in vivo, mouse

C=CC(=O)N1CCN(c2nc(=O)n(-c3c(C)ccnc3C(C)C)c3nc(-c4c(O)cccc4F)c(F)cc23)[C@@H](C)C1 (atropisomer, axis not shown) [AMG 510, 6-fluoro-7-(2-fluoro-6-hydroxyphenyl)-1-(4-methyl-2-(2-propanyl)-3-pyridinyl)-4-((2S)-2-methyl-4-(2-propenoyl)-1-piperazinyl)pyrido[2,3-d]pyrimidin-2(1H)-one] showed an IC50 [1] of 10 ± 0.1 nM, an IC50 [2] of over 10000 nM and an IC50 [3] of over 10000 nM. It also gave an IC50 [4] of 13 ± 4 nM, an IC50 [5] of over 10000 nM and an IC50 [6] of 40 ± 20 nM. It also gave an IC50 [7] of over 10000 nM, an IC50 [8] of 29 ± 16 nM and an IC50 [9] of 27 ± 1 nM. The IC50 [10] was over 10000 nM, the IC50 [11] was over 10000 nM and the IC50 [12] was 90 ± 17 nM. It also gave an IC50 [13] of 123 ± 6 nM, an IC50 [14] of 18 ± 2 nM and an IC50 [15] of over 10000 nM. For the same compound, the IC50 [16] was 45 ± 23 nM, the IC50 [17] was over 10000 nM and the IC50 [18] was 33 ± 4 nM. It also gave an IC50 [19] of over 10000 nM, an IC50 [20] of over 10000 nM and an IC50 ([21]; second of two KRASp.G12C cell lines (FIG. 40E: MIA PaCa-2), read-out: p-ERK IC50) of about 30 nM. The IC50 ([21]; MIA PaCa-2, pancreas, KRAS p.G12C homozygous, read-out: Basal p-ERK1/2 IC50) was 36 ± 2 nM, the IC50 ([22]; NCI-H358, 2 h, read-out: p-ERK IC50) was about 20 nM and the IC50 ([22]; NCI-H358, lung, KRAS p.G12C heterozygous, 2-hour treatment, read-out: Basal p-ERK1/2 IC50) was 35 ± 3 nM. The half-life (physchem) was 3.27 h, the inhibition at 100 mg/kg [23] was 83% and the inhibition at 100 mg/kg ([24]; Mus musculus, MIA PaCa-2 T2, 100 mg/kg oral single dose, 2 hours post-treatment, read-out: inhibition of p-ERK, reduction compared to control) was 69%. For the same compound, the “time of maximal inhibition of p-ERK post-treatment” value ([24]; single dose 10 mg/kg) was 2 to 4 h.
